Experimental findings from ChEMBL document CHEMBL1201862, “PubChem BioAssay data set” (2004) are described below.

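In this assay, cells in 96-well plates receive the compound at five concentrations for 48 hours. Endpoints are linearly interpolated between the surrounding concentrations. GI50 is the concentration that inhibits growth by half.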 Activity calls are given as the source filed them. Cut-off read from the data, not from the text of the source: active = GI50 up to about 1.1 µM and inactive = higher.

Assay in all cases: NCI anticancer screen, dose series, 48 h
Assay [1] concerns DLD-1.
Assay [2] has as its system RXF 631.
Assay [3] relates to DMS-273.
For assay [4], the system named is DMS-114.
For assay [5], the system named is XF498.
Assay [6] deals with HOP-18.
In assay [7] the test system is Hs-578T.
The subject of assay [8] is BT-549.
For assay [9], the system named is T47D.

With `Cc1ccc(SSc2ccc(C)cc2C(=O)O)c(C(=O)O)c1`, the GI50 in [1], in assay [2] and in assay [3] was > 100 µM (inactive) each time.
As for `O=C(Nc1cccc([N+](=O)[O-])c1)C(=O)C(C(=O)c1ccccc1-c1ccccc1)C1OC(=O)c2ccccc21` (stereo not drawn), the GI50 in [4] is 14.5 µM (inactive); in [1] it was 19.9 µM (inactive); in assay [2], 22 µM (inactive); in assay [5] it was 20.4 µM (inactive).
For `C[Si](C)(C)C1(Sc2ccccc2)SCCCS1`, the GI50 in [4] was 25.8 µM (inactive); in assay [1] it was 32 µM (inactive); in assay [3], 35.2 µM (inactive); in [5] it was 28.4 µM (inactive).
Take `O=C1COc2cc3c(cc2N1)SCCC(=O)N3`: the GI50 in [4], in assay [1], in assay [2], in [6], in assay [3] and in [5] was > 100 µM (inactive) throughout.
As to `COC1CC(OS(=O)(=O)c2ccc(C)cc2)C(OS(=O)(=O)c2ccc(C)cc2)C(COS(=O)(=O)c2ccc(C)cc2)O1` (stereo not drawn), the GI50 was 2.92 µM (inactive) in assay [4], 8.75 µM (inactive) in assay [1], 2.24 µM (inactive) in assay [6] and 5.32 µM (inactive) in [3].
On to `C/C(=N\NC(=[Se])N(C)C)c1ccccn1`, for which the GI50 in [7] was 0.208 µM (active); in [4], < 0.01 µM (active); in [1], < 0.01 µM (active); in assay [8], 7.31 µM (inactive); in assay [9] it was 0.0364 µM (active); in [2], < 0.01 µM (active). Further, the GI50 was 2.1 µM (inactive) in [6], 0.316 µM (active) in [3] and 0.198 µM (active) in assay [5].
As to `O=C1NC2OC(CO)C(O)C(O)C2O1` (stereo not drawn), the GI50 in [4], in assay [1], in assay [6] and in assay [3] was > 100 µM (inactive) in each case.
As for `CC(=O)NC(CCCN(Cc1ccccc1)C(=O)N(C)N=O)C(=O)NCc1ccccc1` (stereo not drawn), the GI50 in assay [4], in assay [1], in [2], in assay [3] and in assay [5] was > 100 µM (inactive) in each case.
Regarding `CC(=O)Oc1c2c(c(O)c3ccccc13)C(n1cnc3c(ncn3C3OC(CO)C4OC(C)(C)OC43)c1=N)CCC2` (stereo not drawn), the GI50 was 6.44 µM (inactive) in [4], 13.1 µM (inactive) in assay [1], 20.3 µM (inactive) in assay [6] and 18.1 µM (inactive) in assay [3].
Regarding `COc1cc2c(c3c1C=CCO3)C(=O)c1ccccc1C2=O`, the GI50 in assay [4] is 53.1 µM (inactive); in assay [1], 24.2 µM (inactive); in assay [6], 83.8 µM (inactive); in [3], 49.1 µM (inactive).
For the compound `O=C(Cc1nc2ccccc2o1)C(=O)Nc1ccccc1C(F)(F)F`, the GI50 in assay [4], in [1], in assay [2], in assay [3] and in assay [5] was > 100 µM (inactive) each time.
On to `NC(=O)C1C(=O)Oc2cccnc21` (stereo not drawn), for which the GI50 in assay [4], in assay [1], in assay [6], in assay [3] and in assay [5] was > 100 µM (inactive) in each case.
For the compound `Cc1ccc2c(c1)C1(C)OC(CC(N)C1O)O2` (stereo not drawn), the GI50 in [4], in [1], in assay [6] and in assay [3] was > 100 µM (inactive) each time.
With `CC(=O)Oc1c(C)n(CCCl)ccc1=O`, the GI50 in assay [4] was > 100 µM (inactive); in assay [1], > 100 µM (inactive); in [2] it was 59.4 µM (inactive); in [6], > 100 µM (inactive); in [3] it was > 100 µM (inactive); in [5] it was > 100 µM (inactive).
Consider `O/N=C(\C(=N/O)Nc1ccc(-c2ccc(NC(=N/O)/C(=N\O)c3ccccc3)cc2)cc1)c1ccccc1`, for which the GI50 in [1] was 22.3 µM (inactive); in assay [6], 13.6 µM (inactive); in assay [3], 19.1 µM (inactive); in assay [5], 19.3 µM (inactive).
For the compound `Cc1cccc(C(C)(C)C)c1NC(=O)CC1Sc2ccccc2NC1=O` (stereo not drawn), the GI50 is 24.8 µM (inactive) in [4]; 57.4 µM (inactive) in assay [1]; 36.7 µM (inactive) in assay [2]; 57.9 µM (inactive) in assay [6]; 32.9 µM (inactive) in [3].
Consider `COC(=O)C(C#CCCCCC#CC(NC(=O)OCc1ccccc1)(C(=O)OC)C(F)(F)F)(NC(=O)OCc1ccccc1)C(F)(F)F` (stereo not drawn), for which the GI50 is 28.1 µM (inactive) in [4], > 100 µM (inactive) in assay [1], > 100 µM (inactive) in assay [2] and > 100 µM (inactive) in [6].
As to `COc1ccc2ccc([Se]c3ccc4ccc(OC)cc4c3)cc2c1`, the GI50 in [4] was 64 µM (inactive); in [1], > 100 µM (inactive); in [6] it was 28.9 µM (inactive); in assay [3], > 100 µM (inactive); in assay [5], 43 µM (inactive).
As for `CCN(CC)CC(C)C(=O)/C=C/c1ccc(C)cc1` (stereo not drawn), the GI50 was 1.77 µM (inactive) in [4]; 1.67 µM (inactive) in assay [1]; 10.5 µM (inactive) in assay [6]; 2.23 µM (inactive) in assay [3]; 1.54 µM (inactive) in [5].
With `CC(C#N)c1cn(S(=O)(=O)c2ccccc2)c2ccccc12` (stereo not drawn), the GI50 in assay [4] was 46.5 µM (inactive); in [1], 55.3 µM (inactive); in assay [3], 45.6 µM (inactive); in assay [5], > 100 µM (inactive).
Take `CCCCCc1cc(OC(=O)c2c(O)cc(OC)cc2CCCCC)cc(O)c1C(=O)O`: the GI50 was 14.7 µM (inactive) in [4], 13 µM (inactive) in [1], 16.1 µM (inactive) in [3] and 15.3 µM (inactive) in assay [5].
Consider `CCSCN(C)c1nc(N(C)C)nc(N(C)C)n1`, for which the GI50 in assay [4] was 25.9 µM (inactive); in [1] it was 83 µM (inactive); in [6] it was > 100 µM (inactive); in assay [3], 38.6 µM (inactive).
Consider `CC#C[C@@]1(O)CCCCC1O` (stereo partly drawn), for which the GI50 in [4], in assay [2], in assay [6], in assay [3] and in [5] was > 100 µM (inactive) each time.
In the case of `CC1=CC(/C=C(\C)CCCc2ccoc2)C2(OC(=O)C(C)=C2O)[C@H]2C1CC[C@@H]2C` (stereo partly drawn), the GI50 in [4] was 22.1 µM (inactive); in assay [1], 25.5 µM (inactive); in assay [6], 14.2 µM (inactive); in [3] it was > 10 µM (inactive).
Regarding `FC1OC2OC1C(OCc1ccccc1)C(OCc1ccccc1)C2OCc1ccccc1` (stereo not drawn), the GI50 in assay [4] was 29.5 µM (inactive); in [1] it was 37.9 µM (inactive); in assay [2], 71.1 µM (inactive); in assay [6] it was 24.3 µM (inactive); in assay [3], > 100 µM (inactive); in [5], 23.6 µM (inactive).
For the compound `O=C(/C=C/c1ccccc1)CCN1CCOCC1`, the GI50 is 27.1 µM (inactive) in assay [7]; 9.25 µM (inactive) in assay [4]; 9.29 µM (inactive) in assay [1]; 12.6 µM (inactive) in assay [8]; 17.7 µM (inactive) in assay [9]; 17.7 µM (inactive) in assay [6]. Moreover, the results for the GI50 in assay [3] and in assay [5] were 16.9 µM (inactive) and 14.7 µM (inactive), respectively.
In the case of `CCN(CC)CCCC(C)Nc1ccnc2cc(Cl)ccc12` (stereo not drawn) [CHLOROQUINE PHOSPHATE], the GI50 in assay [4] is 24.3 µM (inactive); in [1], > 100 µM (inactive); in [9], 28.1 µM (inactive); in [3], 28.1 µM (inactive); in assay [5], 17.9 µM (inactive).
As to `CC(=O)[C@@]1(O)CC[C@H]2[C@@H]3C[C@H](C)C4=CC(=O)C=C[C@]4(C)[C@@]3(F)[C@@H](O)C[C@@]21C` [FLUOROMETHOLONE], the GI50 in [7] was > 100 µM (inactive); in [4] it was > 100 µM (inactive); in [1], > 100 µM (inactive); in assay [8], > 100 µM (inactive); in [9] it was > 69.8 µM (inactive); in [2], > 100 µM (inactive). Further, the GI50 in [3] was > 100 µM (inactive); in assay [5], > 53.5 µM (inactive).
